Results published in patent US9226912B2, “Acetyltanshinone IIA (ATA) as anticancer agent” (Nanyang Technological University, priority 2011, dated 2016).

Key:
ERα in MCF-7 cells = molecular target: T1, ERα in MCF-7 cells (Homo sapiens, UniProt P03372); assay: ERα protein level by immunostaining and Western blot; format: cell-based
T1 construct: endogenous in cells; host or cells: MCF-7 human breast cancer cells
T1 sequence (P03372 1-595): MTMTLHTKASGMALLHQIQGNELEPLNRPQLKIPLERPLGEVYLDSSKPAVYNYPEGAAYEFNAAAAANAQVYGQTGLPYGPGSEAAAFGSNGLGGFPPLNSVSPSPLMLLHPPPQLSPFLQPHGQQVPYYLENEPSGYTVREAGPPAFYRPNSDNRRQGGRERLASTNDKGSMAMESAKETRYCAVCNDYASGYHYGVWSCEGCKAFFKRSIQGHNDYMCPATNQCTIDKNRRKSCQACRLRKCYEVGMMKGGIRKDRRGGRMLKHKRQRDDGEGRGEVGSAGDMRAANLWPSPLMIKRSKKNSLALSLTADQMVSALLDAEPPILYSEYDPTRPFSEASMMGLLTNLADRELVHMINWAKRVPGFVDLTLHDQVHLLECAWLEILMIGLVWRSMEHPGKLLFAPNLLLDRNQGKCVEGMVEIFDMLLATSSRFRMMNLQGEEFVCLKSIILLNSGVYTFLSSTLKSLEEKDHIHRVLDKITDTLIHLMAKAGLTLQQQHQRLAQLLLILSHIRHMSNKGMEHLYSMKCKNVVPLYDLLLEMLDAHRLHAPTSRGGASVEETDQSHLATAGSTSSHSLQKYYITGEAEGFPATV
Procedure: (B) Western blot analysis of ERα levels in normal medium-cultured MCF-7 cells at different times with 6 μM ATA treatment.
Thus, immunostaining was used to exam the protein level of ERα in MCF-7 cells after ATA treatment. It was observed that ERα was mainly localized in the nucleus (FIG. 6A) in the control cells, which had been cultured in the charcoal-stripped medium for 4 days.
Subsequently, Western blot analysis was used to confirm this prediction. […] To ensure that ATA produced a similar effect in the MCF-7 cells under a physiological condition, Western blotting was used to determine the protein level of ERα in normal medium-cultured MCF-7 cells with or without ATA treatment.

ESR1 mRNA in MCF-7 cells = assay: Real-time PCR of ESR1 mRNA level; settings: 100 pM estrogen plus 6 μM compound
Procedure: MCF-7 cells cultured in the charcoal-stripped medium were used as control for the 0 h sample.

MCF-7 = assay: Growth inhibition at 72 h by MTT assay
[1] = 6 μM ATA, 3 h, charcoal-stripped medium, immunostaining

## CC(=O)Oc1c(OC(C)=O)c2c(C)coc2c2ccc3c(c12)CCCC3(C)C [ATA, 1,6,6-trimethyl-8,9-dihydro-10,11-diacetoxyl-7H-naphtho[1,2-g][1]benzofuran]
ERα in MCF-7 cells; 6 μM ATA, 24 and 48 h, normal medium, Western blot
  ERα protein level: significantly decreased
ERα in MCF-7 cells; [1]
  ERα fluorescence intensity in the cytosol: remained unchanged
  level of ERα in the nucleus: greatly reduced
ERα in MCF-7 cells; 4 h, charcoal-stripped medium, Western blot
  total protein level of ERα: slightly reduced
ERα in MCF-7 cells; after 8 h, charcoal-stripped medium, Western blot
  total protein level of ERα: significantly reduced
ESR1 mRNA in MCF-7 cells; 12 h, charcoal-stripped medium
  level of ESR1 mRNA over control: 55%
ESR1 mRNA in MCF-7 cells; 24 h, charcoal-stripped medium
  level of ESR1 mRNA over control: 31%
ESR1 mRNA in MCF-7 cells; 24 h, normal medium
  level of ESR1 mRNA over control: about 30%
ESR1 mRNA in MCF-7 cells; 36 h and 48 h, charcoal-stripped medium
  level of ESR1 mRNA over control: about 50%
MCF-7; Homo sapiens, MCF7, 72 h
  IC50: 1480 ± 240 nM
MCF-7; Homo sapiens, MCF7, 72 h, read-out: growth inhibition rate
  inhibition at 3.13 µM: 94.7%
MCF-7; MCF-7 (ER+), 72 h
  IC50 ratio of tamoxifen/ATA: 6.8
MCF-7; MCF-7, three tested drug concentrations, 72 h, MTT
  higher growth inhibition rate than tamoxifen: 57-74%
MCF-7; two ER-positive breast cancer cell lines, 72 h
  less ATA needed than tamoxifen to inhibit 50% of ER-positive cell growth: 6.7 fold
